From patent publication US20100062478A1, “DRUG FOR ANALYSIS OF WATER TRANSPORT FUNCTION OF MEMBRANE PROTEIN IN BIOLOGICAL TISSUE” (priority 2007, published 2010) come the findings set out here.

The data set concerns aquaporin. In words: Immersion of round radish slices in red food coloring water (Reference Example 1). The method, then: Using radish that was cut into round slices with thicknesses of 6-10 cm, the bottom faces of the round slices were immersed in red food coloring water for 1-16 hours, As the red food coloring, Red No. 102 (chemical name: 7-hydroxy-8-(4-sulfonaphthylazo)-1,3-naphthylenedisulfonic acid=trisodium salt=1½ hydrate) was used.

As to `O.O.O.O=S(=O)([O-])c1cc(S(=O)(=O)[O-])c2c(N=Nc3ccc(S(=O)(=O)[O-])c4ccccc34)c(O)ccc2c1.O=S(=O)([O-])c1cc(S(=O)(=O)[O-])c2c(N=Nc3ccc(S(=O)(=O)[O-])c4ccccc34)c(O)ccc2c1.[Na+].[Na+].[Na+].[Na+].[Na+].[Na+]` [Red No. 102, 7-hydroxy-8-(4-sulfonaphthylazo)-1,3-naphthylenedisulfonic acid=trisodium salt=1½ hydrate], the “permeation of red food coloring into radish tissue” value is “had soaked into the connective tissue at the periphery of the round slices from the bottom face” (bottom face of round slices immersed, one hour elapsed) and “sites permeated by red food coloring water were not found anywhere other than the connective tissue” (round slices immersed for 16 hours).
